Source: paper PMC7321149 (Molecules, 2020)
Read-outs that look alike come from different tables or passages of the source.

Tests used:
[1] = test system: L. amazonensis; assay: Leishmania high content assay, intracellular amastigotes in PMA-differentiated THP-1 macrophages; format: cell-based, Leishmania amazonensis (MHOM/BR/1977/LTB0016); settings: for EC50: Leishmania amazonensis
Protocol: (§1) THP-1 cells were plated onto 384-well assay plates (7000 cells/well, 25 μL) in RPMI complete media containing 50 ng/mL phorbol 12-myristate 13-acetate (PMA) and incubated at 37 °C/5% CO2 for 48 h. Cells were then infected with stationary-phase promastigotes at a multiplicity of infection (MOI) of 50 by adding 25 μL RPMI (without PMA reagent), containing 1.4 × 10^7 parasites/mL. After 24 h of incubation at 37 °C (34 °C for cutaneous species), negative control-vehicle (0.5% DMSO), the positive control (10 μM amphotericin B), and compounds were added to the plate at a volume of 10 μL/well, bringing the total volume to 60 μL/well. For the primary screenings, compounds from the LOPAC library were tested at a concentration of 50 µM. […] Assay plates were incubated at 37 °C or 34 °C/5% CO2. After 96 h of compound exposure, assay plates were fixed with paraformaldehyde (PFA) by adding 30 μL of 12% PFA in PBS, pH 7.4, followed by incubation for 15 min at room temperature. Plates were then washed three times with 50 μL of PBS, pH 7.4, and stained with 10 μL/well of 5 μM Draq5 in PBS, pH 7.4, for at least two hours before imaging.
(§2) Plates were imaged in Operetta High Content Imaging System (Perkin Elmer), version 3.1, at a 20× magnification and filters optimized for far-red fluorescence (fluorescence filter: […]). A total of four images were acquired per well, which corresponded to 600–800 cells analyzed per condition. Quantitative readouts of the infection (total THP-1 cell number, total number of infected THP-1 cells, and number of parasites (spots) per infected cell) were determined by custom analysis building blocks in Columbus image analysis software (Perkin Elmer). Briefly, host nuclei and cells were segmented based on DNA staining, followed by the detection of individual parasites also based on DNA staining. Infected cells were determined as cells with one or more spots in the cytoplasmatic area. Details of the analysis workflow are described in the (Supplementary Information (Figure S4 and Table S1).
(§3) HCS data were analyzed as previously described^29. Briefly, the ratio of infected cells to the total number of cells was determined as the infection ratio (IR). The raw data for IR values was normalized to the negative (DMSO-treated infected cells) and positive (non-infected cells) controls to determine the normalized antiparasitic activity, expressed as a percentage in comparison to control wells. The cellular ratio was determined as the proportion between the host cell number in compound-treated wells and the mean cell number in infected control wells. Plates were submitted to quality control analysis using the Z’-factor^53 and only plates with Z’-factor > 0.5 were considered for further analysis. Groups of different samples were analyzed using the ANOVA test followed by Tukey’s multiple comparison test. Studies of correlation were performed using Pearson or Spearman tests. […] Dose–response data were processed with the Graphpad Prism software, version 6, using the sigmoidal dose–response (variable slope) nonlinear curve fitting function.

[2] = test system: L. braziliensis; assay: as above; format: cell-based, Leishmania braziliensis (MHOM/BR/1975/M2903); settings: for EC50: Leishmania braziliensis
Protocol: as §1, §2, §3

[3] = test system: L. donovani; assay: as above; format: cell-based, Leishmania donovani (MHOM/IN/1980/DD8)
Protocol: as §1, §2, §3

[4] = test system: L. amazonensis, L. braziliensis, and L. donovani; assay: Leishmania multi-species high content assay, result stated across the species panel; format: cell-based; settings: for pan-leishmanial activity (efficacy): against all three species; for normalized activity against two species: two of the three species; for Emax: read-out: maximum efficacy
Protocol: as §1, §2, §3

[5] = test system: Leishmania; parameters: method as in PMID 27215734; settings: cited from earlier work
[6] = test system: visceral leishmaniasis; parameters: method as in earlier work; settings: phase II clinical trial; cited from earlier work
[7] = test system: amastigote forms of L. aethiopica; parameters: method as in PMID 11801222; settings: cited from earlier work
[8] = test system: L. donovani; parameters: method as in PMID 21739037; settings: in vitro; cited from earlier work
[9] = THP-1, read-out: pEC50 M L. d (converted)
[10] = THP-1, confirmatory dose-response, mean of two independent experiments, pEC50 = -log EC50 (M), read-out: pEC50 M L. a (converted)
[11] = THP-1, confirmatory dose-response, mean of two independent experiments, pEC50 = -log EC50 (M), read-out: pEC50 M L. b (converted)
[12] = THP-1, confirmatory dose-response, mean of two independent experiments, pEC50 = -log EC50 (M), read-out: pEC50 M L. d (converted)
[13] = confirmatory dose-response, mean of two independent experiments, pEC50 = -log EC50 (M)
[14] = THP-1, library screening plates, mean ± standard deviation from eight assay plates, read-out: EC50 Amphotericin B
[15] = reference compound concentration-effect curves (Figure 2B), 96 h exposure, infected THP-1, read-out: EC50
[16] = dose-response of reference drugs, span over the three species

NC(=O)c1cc(N2CC2)c([N+](=O)[O-])cc1[N+](=O)[O-] [CB 1954] showed an EC50 ([1]; THP-1) of 3.1e-05 M, an EC50 ([1]; THP-1, read-out: pEC50 M L. a (converted)) of 3.09e-05 M and an EC50 ([2]; THP-1) of 1.6e-06 M. For the same compound, the EC50 ([2]; THP-1, read-out: pEC50 M L. b (converted)) was 2.19e-06 M, the EC50 ([3]; THP-1) was 3.7e-06 M and the EC50 [3, 9] was 3.72e-06 M. For the same compound, the “pan-leishmanial activity (efficacy)” value [4] was “greater than 70%”.

COc1ccccc1OCCNCC(O)COc1cccc2[nH]c3ccccc3c12 (centres unmarked) [Carvedilol] showed an EC50 [1, 10] of 3.55e-05 M, an EC50 ([2]; THP-1, confirmatory dose-response screen, values in text, read-out: EC50) of 1.62e-05 M and an EC50 [2, 11] of 1.62e-05 M.

For CCc1cccc(N(C)C(N)=Nc2cccc3ccccc23)c1 [Cerestat], the EC50 [1, 10] was 2.88e-05 M.

For CN(C)CCCN1c2ccccc2CCc2ccc(Cl)cc21 [Clomipramine], the “pan-leishmanial activity (efficacy)” value [4] was “greater than 70%”.

In the case of CN1CCN(C2Cc3ccccc3Sc3ccc(Cl)cc32)CC1 (centres unmarked) [Clorotepine], the EC50 [1, 10] is reported as 4.57e-05 M, the EC50 [2, 11] is reported as 2.88e-05 M and the EC50 [3, 12] is reported as 4.37e-05 M.

For C[C@]1(COc2ccc(N3CCC(Oc4ccc(OC(F)(F)F)cc4)CC3)cc2)Cn2cc([N+](=O)[O-])nc2O1 [Delamanid], the “efficacy against Leishmania” value [5] is given as “effective”.

CNCCCN1c2ccccc2CCc2ccccc21 [Desipramine] gave an EC50 [1, 10] of 2.75e-05 M and an EC50 [2, 11] of 3.24e-05 M.

For CN(C)CC/C=C1/c2ccccc2Sc2cc(Cl)ccc21.Cl [EU-0100170], the “normalized activity against two species” value [4] was greater than 90%.

Compound CCN(CC)C(C)CN1c2ccccc2Sc2ccccc21 (centres unmarked) [Ethopropazine] has an EC50 [1, 10] of 4.57e-05 M, an EC50 [2, 11] of 3.72e-05 M and an EC50 [3, 12] of 3.16e-05 M.

With OCCN1CCN(CCC=C2c3ccccc3Sc3ccc(C(F)(F)F)cc32)CC1 [Flupenthixol] the EC50 [3, 12] was 3.47e-05 M.

In the case of N=C(CC(=O)O)C(=O)O [Iminoaspartate], the “pEC50 M L. a” value [1, 13] is reported as 4.42 and the “pEC50 M L. b” value [2, 13] is reported as 4.52.

With CNC1CC(c2ccc(Cl)c(Cl)c2)c2ccccc21 (centres unmarked) [Indatraline] the EC50 ([3]; THP-1) was 1.81e-05 M and the EC50 [3, 9] was 1.82e-05 M.

For Cl.O=S(=O)(c1cccc2c(Cl)cccc12)N1CCCNCC1 [ML-9], the “pan-leishmanial activity (efficacy)” value [4] was “greater than 70%”.

With CNCCCC12CCC(c3ccccc31)c1ccccc12 [Maprotiline] the “pan-leishmanial activity (efficacy)” value [4] was “greater than 70%”.

Work on CN1C[C@H](CNC(=O)OCc2ccccc2)C[C@@H]2c3cccc4c3c(cn4C)C[C@H]21 [Metergoline] yielded an EC50 [3, 12] of 3.24e-05 M.

With CNCCC=C1c2ccccc2CCc2ccccc21 [Nortriptyline] the EC50 [1, 10] was 2.95e-05 M and the EC50 [2, 11] was 3.63e-05 M.

Fc1ccc([C@@H]2CCNC[C@H]2COc2ccc3c(c2)OCO3)cc1 [Paroxetine] showed an EC50 [3, 12] of 3.16e-05 M.

For CCCCCCCCCCCCCCCCCCOP(=O)([O-])OC1CC[N+](C)(C)CC1 [Perifosine], the EC50 [3, 12] was 2.75e-05 M.

Compound OCCN1CCN(CCCN2c3ccccc3Sc3ccc(Cl)cc32)CC1 [Perphenazine] has an EC50 [3, 12] of 2.75e-05 M.

CN(C)CCCN1c2ccccc2Sc2ccccc21 [Promazine] showed an EC50 [2, 11] of 4.57e-05 M.

Work on CC(CN1c2ccccc2Sc2ccccc21)N(C)C (centres unmarked) [Promethazine] yielded an EC50 [1, 10] of 3.98e-05 M and an EC50 [2, 11] of 3.98e-05 M.

Work on CCC(=O)c1ccc2c(c1)N(CCCN(C)C)c1ccccc1S2 [Propionylpromazine] yielded an EC50 [1, 10] of 3.47e-05 M and an EC50 [2, 11] of 3.09e-05 M.

CNCCCC1c2ccccc2C=Cc2ccccc21 [Protriptyline] showed an EC50 [1, 10] of 3.89e-05 M, an EC50 [2, 11] of 3.72e-05 M and an EC50 [3, 12] of 2.95e-05 M. For the same compound, the “pan-leishmanial activity (efficacy)” value [4] was “greater than 70%”.

Compound c1cc(CN2CCCCC2)cc(OCCCNc2nc3ccccc3s2)c1 [SKF 95282] has an EC50 [1, 10] of 4.27e-05 M, an EC50 [2, 11] of 2.63e-05 M and an EC50 [3, 12] of 4.9e-05 M.

In the case of CN1CCN(CCCN2c3ccccc3Sc3ccc(C(F)(F)F)cc32)CC1 [Trifluoperazine], the EC50 [3, 12] is reported as 3.8e-05 M.

Work on CN(C)CCCN1c2ccccc2Sc2ccc(C(F)(F)F)cc21 [Triflupromazine] yielded an EC50 [3, 12] of 2.82e-05 M.

For CC(CN(C)C)CN1c2ccccc2CCc2ccccc21 (centres unmarked) [Trimipramine], the EC50 [1, 10] was 3.98e-05 M, the EC50 [2, 11] was 2.82e-05 M and the EC50 [3, 12] was 4.07e-05 M.

With CC[C@]1(O)C[C@@H]2CN(CCc3c([nH]c4ccccc34)[C@@](C(=O)OC)(c3cc4c(cc3OC)N(C)[C@H]3[C@@](O)(C(=O)OC)[C@H](OC(C)=O)[C@]5(CC)C=CCN6CC[C@]43[C@@H]65)C2)C1 [Vinblastine] the EC50 [1, 10] was 2.82e-05 M and the EC50 [2, 11] was 3.47e-05 M.

Compound C[C@@H]1[C@H](O)[C@@H](C)/C=C/C=C/C=C/C=C/C=C/C=C/C=C/[C@H](O[C@@H]2O[C@H](C)[C@@H](O)[C@H](N)[C@@H]2O)C[C@@H]2O[C@](O)(C[C@@H](O)C[C@@H](O)[C@H](O)CC[C@@H](O)C[C@@H](O)CC(=O)O[C@H]1C)C[C@H](O)[C@H]2C(=O)O [amphotericin B] has an EC50 [1, 14] of 2.1e-06 ± 1.6e-07 M, an EC50 [1, 15] of 1.7e-06 M and an EC50 [2, 14] of 9.3e-07 ± 4.5e-07 M. The EC50 [2, 15] was 1.3e-06 M, the EC50 [3, 14] was 8.2e-07 ± 7e-08 M and the EC50 [3, 15] was 7e-07 M. The EC50 [4, 16] was 700 to 2000 nM and the Emax [4, 16] was roughly 100%.

In the case of CSc1ccc(OCc2ncc([N+](=O)[O-])n2C)cc1 [fexinidazole], the efficacy in patients [6] is given as “failed to demonstrate efficacy”.

With CCCCCCCCCCCCCCCCOP(=O)([O-])OCC[N+](C)(C)C [miltefosine] the EC50 ([1]; THP-1, variation across ten independent experiments, read-out: EC50) was 9.7e-07 to 1.4e-05 M, the EC50 [1, 15] was 2.3e-06 M and the EC50 [2, 15] was 1.6e-06 M. The EC50 [3, 15] was 6e-07 M, the “potency variation between species” value ([4]; EC50 compared between the three species) was “up to 4 fold” and the Emax [4, 16] was 78 to 100%. For the same compound, the “sensitivity to miltefosine, L. aethiopica relative to L. major” value [7] was 14 fold and the “potency against L. donovani relative to L. amazonensis, L. braziliensis, L. guyanensis, and L. chagasi” value [8] was “approximately 20 times”.

In the case of Cl.O[Si](CCCN1CCCCC1)(c1ccc(F)cc1)C1CCCCC1 (centres unmarked) [pFHHSiD], the “normalized activity against two species” value [4] is reported as greater than 90%.

With Bromocryptine the “pEC50 M L. a” value [1, 13] was 4.43 and the “pEC50 M L. b” value [2, 13] was 4.41.
